≈ marks a conversion by molar mass, not a printed value.

Experiment [1] deals with Trypanosoma brucei brucei GUTat 3.1 strain. In words: In vitro inhibitory activity on trypanosoma protozoa proliferation (Alamar Blue). Particulars: for IC50: Trypanosoma brucei, 72 h, read-out: IC50 value Trypanosoma brucei brucei GUTat3.1 strain.
The subject of experiment [2] is human fetal lung-derived normal fibroblast MRC-5 cells. Description: Cytotoxicity test (MTT assay). The conditions noted are these: for Selectivity index (MRC-5 cytotoxicity IC50 / anti-trypanosoma IC50): (IC50 values for cytotoxicity)/(IC50 values for anti-trypanosoma activity); for IC50: Homo sapiens, MRC5, 168 h, seven days culture, MTT assay, read-out: IC50 value MRC-5 cell. The experiment is classed as cell-based. The protocol: J. Antibiotics, 54: 658 to 663, (2001)]. That is, the human fetal lung-derived normal fibroblast MRC-5 cells [can be provided by Dr. […], Belgium)] were maintained and subcultured in the MEM-medium containing 10% bovine fetal serum (FCS) and antibiotics and were used as the host cell model. […] The presence or absence of the proliferation of the MRC-5 cells was measured by colorimetric quantification by the MTT assay. […] Also, the selectivity index (SI) was calculated as (IC50 values for cytotoxicity)/(IC50 values for anti-trypanosoma activity).

Experiment [3] concerns Bacillus subtilis ATCC6633. Description: Antibacterial activity, paper disc method. The experiment is classed as cell-based. Particulars: 6 mm disc, 10 μL of 1 mg/mL, 35° C., 24 hours, read-out: the diameter of inhibiton zones.
Experiment [4] has as its system the microorganisms listed in Table 7. Description: Antibacterial activity, paper disc method, overall statement. The format is cell-based. Particulars: summary in words. The protocol: The antibacterial activities of Mangromicins A, B and C of the present invention were measured by the following method. Filter paper discs (Advantec, a diameter of 6 mm) were impregnated with 10 μL of 1 mg/mL solutions of Mangromicins A, B and C in methanol, and air-dried for a certain period of time to remove the solvent. Subsequently, the discs were placed on agar plates each containing the test bacteria shown in Table 7, followed by culturing at 35° C. for 24 hours. The diameter of the growth inhibiting zones formed around the paper discs was measured.

As for `CCCC1C(O)=C2CCC3(C)CC(C)C(O3)C(O)/C=C(\C)C(=O)CC1OC2=O` (centres unmarked) [Mangromicin B], the IC50 in experiment [1] came out at 43.4 µg/mL (≈ 111 µM). In experiment [2], the “Selectivity index (MRC-5 cytotoxicity IC50 / anti-trypanosoma IC50)” value was 2.1 and the IC50 stood at 92.6 µg/mL (≈ 236 µM). Also, the zone of inhibition at 1000 µg/mL in experiment [3] was determined as 7 mm. Further, the “antibacterial activities on the microorganisms listed in Table 7” value in experiment [4] was “almost no antibacterial activities”.

For the compound `CCCC1C(O)=C2CCC3(C)CC(C)C(O3)C(O)C(O)C(C)C(=O)CC1OC2=O` (centres unmarked) [Mangromicin A], in experiment [1] (T.b.b. GUTat 3.1 strain, relative to suramin and eflornithine), the “anti-trypanosoma activity compared to suramin and eflornithine” value is reported as “equivalent or slightly inferior”. Besides, in experiment [1], the IC50 stood at 2.44 µg/mL (≈ 5.94 µM). Besides, in experiment [2], the “Selectivity index (MRC-5 cytotoxicity IC50 / anti-trypanosoma IC50)” value was found to be 6.6 and the IC50 turned out to be 16 µg/mL (≈ 39 µM). The “antibacterial activities on the microorganisms listed in Table 7” value in experiment [4] is given as “almost no antibacterial activities”.

Turning to `NCCCC(N)(C(=O)O)C(F)F` (centres unmarked) [Eflornithine, eflornithine, reference compound], the IC50 in experiment [1] was 2.27 µg/mL (≈ 12.5 µM); in experiment [2], more than 100 µg/mL.

As for `Cc1ccc(C(=O)Nc2ccc(S(=O)(=O)O)c3cc(S(=O)(=O)O)cc(S(=O)(=O)O)c23)cc1NC(=O)c1cccc(NC(=O)Nc2cccc(C(=O)Nc3cc(C(=O)Nc4ccc(S(=O)(=O)O)c5cc(S(=O)(=O)O)cc(S(=O)(=O)O)c45)ccc3C)c2)c1` [Suramin, suramin, reference compound], the figures for the IC50 in experiment [1] and in experiment [2] were 1.58 µg/mL (≈ 1.22 µM) and more than 100 µg/mL, respectively.

For the origin of these results see patent publication US9000194B2, “Mangromicin compound and production method therefor” (The Kitasato Institute, priority 2011, dated 2015).
